Results taken from US20130072430A1, “METHODS FOR TREATMENT OR PROPHYLAXIS OF KIDNEY OR LIVER DYSFUNCTION” (NPS PHARMACEUTICALS, INC., priority 2010, published 2013).

Tested on: Human patients with short bowel syndrome
Experiment: Example 1: kidney diagnostic biomarkers (urea nitrogen, creatinine, GFR) in short bowel syndrome patients, every four weeks for 24 weeks
Assay type: in vivo
Parameters: CREATININE (RATE BLANKED) Change from Baseline, Median / GFR, Median / GFR Change from Baseline, Median / UREA NITROGEN, Median / UREA NITROGEN Change from Baseline, Median: unit not given here
Settings: for CREATININE (RATE BLANKED), Median: unit assumed
Procedure: Human patients with short bowel syndrome were divided into three groups: a control group (16 total individuals) to receive placebo, an experimental group (35 total individuals) to receive teduglutide at 0.05 mg/kg/day throughout the study, and an experimental group (32 total individuals) to receive teduglutide at 0.1 mg/kg/day throughout the study. Patients were treated by subcutaneous injection of placebo or the appropriate dose of teduglutide. As individuals with short bowel syndrome are likely to experience associated liver and kidney disease, known biomarkers of liver and kidney function were monitored every four weeks, for 24 weeks. The liver biomarkers tested included total bilirubin, ALT and AST and ALP. The kidney biomarkers tested included urea nitrogen, creatinine and GFR. Before administration of placebo or teduglutide, diagnostic biomarker levels were tested to establish a baseline for each individual.
To visualize the effect of GLP-2 on the levels of the diagnostic biomarkers, the average change from baseline was calculated for the placebo and teduglutide treated groups for each visit after a baseline was established. The average change from baseline of each group is depicted in FIGS. […]. The numerical figures for each diaanostic biomarker at each time point are depicted in Table 1.
The raw data for this sorting is reproduced in Table 2 below.

Structure (SMILES): CC[C@H](C)[C@H](NC(=O)[C@H](Cc1ccccc1)NC(=O)[C@H](CC(=O)O)NC(=O)[C@H](CCCNC(=N)N)NC(=O)[C@H](C)NC(=O)[C@H](C)NC(=O)[C@H](CC(C)C)NC(=O)[C@H](CC(N)=O)NC(=O)[C@H](CC(=O)O)NC(=O)[C@H](CC(C)C)NC(=O)[C@@H](NC(=O)[C@@H](NC(=O)[C@H](CC(N)=O)NC(=O)[C@H](CCSC)NC(=O)[C@H](CCC(=O)O)NC(=O)[C@H](CC(=O)O)NC(=O)[C@H](CO)NC(=O)[C@H](Cc1ccccc1)NC(=O)[C@H](CO)NC(=O)CNC(=O)[C@H](CC(=O)O)NC(=O)CNC(=O)[C@@H](N)Cc1c[nH]cn1)[C@@H](C)O)[C@@H](C)CC)C(=O)N[C@@H](CC(N)=O)C(=O)N[C@@H](Cc1c[nH]c2ccccc12)C(=O)N[C@@H](CC(C)C)C(=O)N[C@H](C(=O)N[C@@H](CCC(N)=O)C(=O)N[C@H](C(=O)N[C@@H](CCCCN)C(=O)N[C@H](C(=O)N[C@H](C(=O)N[C@@H](CC(=O)O)C(=O)O)[C@@H](C)O)[C@@H](C)CC)[C@@H](C)O)[C@@H](C)CC [teduglutide]
- GFR Change from Baseline, Mean (SD) (0.05 mg/kg/day, DW24): 3.7 (12.81)
- GFR Change from Baseline, Median (0.05 mg/kg/day, DW24): 1.7
- GFR, Mean (SD) (0.05 mg/kg/day, DW24): 89.7 (41.28)
- GFR, Median (0.05 mg/kg/day, DW24): 78.1
- UREA NITROGEN Change from Baseline, Mean (SD) (0.05 mg/kg/day, DW24): −0.6 (2.02)
- UREA NITROGEN Change from Baseline, Median (0.05 mg/kg/day, DW24): −0.7
- UREA NITROGEN, Mean (SD) (0.05 mg/kg/day, DW24): 5.0 (1.88)
- UREA NITROGEN, Median (0.05 mg/kg/day, DW24): 4.9
- CREATININE (RATE BLANKED), Median (0.05 mg/kg/day, DW24): 80 µmol/L
- CREATININE (RATE BLANKED) Change from Baseline, Mean (SD) (0.10 mg/kg/day, DW4): −1.8 (10.49)
- CREATININE (RATE BLANKED) Change from Baseline, Median (0.10 mg/kg/day, DW4): −0.5
- CREATININE (RATE BLANKED), Mean (SD) (0.10 mg/kg/day, DW4): 81.0 (21.62)
- GFR Change from Baseline, Mean (SD) (0.10 mg/kg/day, DW4): 3.6 (11.81)
- GFR Change from Baseline, Median (0.10 mg/kg/day, DW4): 3.1
- GFR, Mean (SD) (0.10 mg/kg/day, DW4): 80.3 (25.98)
- GFR, Median (0.10 mg/kg/day, DW4): 75.6
- UREA NITROGEN Change from Baseline, Mean (SD) (0.10 mg/kg/day, DW4): 0.3 (1.22)
- UREA NITROGEN Change from Baseline, Median (0.10 mg/kg/day, DW4): 0.2
- UREA NITROGEN, Mean (SD) (0.10 mg/kg/day, DW4): 6.4 (2.19)
- UREA NITROGEN, Median (0.10 mg/kg/day, DW4): 6.3
- CREATININE (RATE BLANKED), Median (0.10 mg/kg/day, DW4): 83 µmol/L
- CREATININE (RATE BLANKED) Change from Baseline, Mean (SD) (0.10 mg/kg/day, DW8): 1.2 (10.40)
- CREATININE (RATE BLANKED) Change from Baseline, Median (0.10 mg/kg/day, DW8): 0.0
- CREATININE (RATE BLANKED), Mean (SD) (0.10 mg/kg/day, DW8): 84.2 (21.41)
- GFR Change from Baseline, Mean (SD) (0.10 mg/kg/day, DW8): 0.6 (10.87)
- GFR Change from Baseline, Median (0.10 mg/kg/day, DW8): 0.2
- GFR, Mean (SD) (0.10 mg/kg/day, DW8): 77.9 (25.63)
- GFR, Median (0.10 mg/kg/day, DW8): 76.9
- UREA NITROGEN Change from Baseline, Mean (SD) (0.10 mg/kg/day, DW8): 0.2 (1.20)
- UREA NITROGEN Change from Baseline, Median (0.10 mg/kg/day, DW8): 0.1
- UREA NITROGEN, Mean (SD) (0.10 mg/kg/day, DW8): 6.4 (2.00)
- UREA NITROGEN, Median (0.10 mg/kg/day, DW8): 6.4
- CREATININE (RATE BLANKED), Median (0.10 mg/kg/day, DW8): 86 µmol/L
- CREATININE (RATE BLANKED) Change from Baseline, Mean (SD) (0.10 mg/kg/day, DW12): 2.8 (12.77)
- CREATININE (RATE BLANKED) Change from Baseline, Median (0.10 mg/kg/day, DW12): 6.5
- CREATININE (RATE BLANKED), Mean (SD) (0.10 mg/kg/day, DW12): 86.4 (25.37)
- GFR Change from Baseline, Mean (SD) (0.10 mg/kg/day, DW12): 0.2 (15.54)
- GFR Change from Baseline, Median (0.10 mg/kg/day, DW12): −0.5
- GFR, Mean (SD) (0.10 mg/kg/day, DW12): 77.3 (25.57)
- GFR, Median (0.10 mg/kg/day, DW12): 68.7
- UREA NITROGEN Change from Baseline, Mean (SD) (0.10 mg/kg/day, DW12): 0.1 (1.47)
- UREA NITROGEN Change from Baseline, Median (0.10 mg/kg/day, DW12): 0.0
- UREA NITROGEN, Mean (SD) (0.10 mg/kg/day, DW12): 6.3 (2.08)
- UREA NITROGEN, Median (0.10 mg/kg/day, DW12): 5.9
- CREATININE (RATE BLANKED), Median (0.10 mg/kg/day, DW12): 84.5 µmol/L
- CREATININE (RATE BLANKED) Change from Baseline, Mean (SD) (0.10 mg/kg/day, DW16): 0.6 (11.86)
- CREATININE (RATE BLANKED) Change from Baseline, Median (0.10 mg/kg/day, DW16): 0.0
- CREATININE (RATE BLANKED), Mean (SD) (0.10 mg/kg/day, DW16): 84.2 (21.85)
- GFR Change from Baseline, Mean (SD) (0.10 mg/kg/day, DW16): 1.1 (13.73)
- GFR Change from Baseline, Median (0.10 mg/kg/day, DW16): 1.1
- GFR, Mean (SD) (0.10 mg/kg/day, DW16): 78.3 (23.12)
- GFR, Median (0.10 mg/kg/day, DW16): 77.5
- UREA NITROGEN Change from Baseline, Mean (SD) (0.10 mg/kg/day, DW16): −0.2 (1.47)
- UREA NITROGEN Change from Baseline, Median (0.10 mg/kg/day, DW16): 0.0
- UREA NITROGEN, Mean (SD) (0.10 mg/kg/day, DW16): 6.0 (1.86)
- UREA NITROGEN, Median (0.10 mg/kg/day, DW16): 6.1
- CREATININE (RATE BLANKED), Median (0.10 mg/kg/day, DW16): 87.5 µmol/L
- CREATININE (RATE BLANKED) Change from Baseline, Mean (SD) (0.10 mg/kg/day, DW20): 2.6 (12.05)
- CREATININE (RATE BLANKED) Change from Baseline, Median (0.10 mg/kg/day, DW20): 0.0
- CREATININE (RATE BLANKED), Mean (SD) (0.10 mg/kg/day, DW20): 86.6 (20.44)
- GFR Change from Baseline, Mean (SD) (0.10 mg/kg/day, DW20): −0.6 (16.16)
- GFR Change from Baseline, Median (0.10 mg/kg/day, DW20): 1.5
- GFR, Mean (SD) (0.10 mg/kg/day, DW20): 77.3 (26.45)
